The text below walks through data of patent US9517221B2, “(2R)-2-propyloctanoic acid for functional brain disease” (ONO PHARMACEUTICAL CO., LTD., priority 2006, dated 2016).

In the test the test system is olfactory bulbectomized rats. As to the kind of experiment: Hyperemotional reactivity (hyperemotional score) of olfactory bulbectomized rats. It is filed as in vivo, rat. Set-up: key to Hyperemotional score (mean ± S. E.), One day administration, Before administration / Hyperemotional score (mean ± S. E.), One day administration, After administration / Hyperemotional score (mean ± S. E.), Seven days administration, Before administration / Hyperemotional score (mean ± S. E.), Seven days administration, After administration: irritability score per Gomita et al. (1983) criteria. Particulars: for Hyperemotional score (mean ± S. E.), Seven days administration, After administration: 1 hour to 1 hour 10 minutes after 7 days administration; for Hyperemotional score (mean ± S. E.), Seven days administration, Before administration: before administration of the 7 days administration; for Hyperemotional score (mean ± S. E.), One day administration, After administration: 1 hour to 1 hour 10 minutes after 1 day administration; for Hyperemotional score (mean ± S. E.), One day administration, Before administration: baseline before grouping, 12 animals. The procedure: SPF rats (Crlj: WI) were used in the test. The animal for olfactory bulbectomy was anesthetized with pentobarbital sodium (Nembutal R Injection, Dainippon Pharmaceutical, dose: 1 mL/kg (intraperitoneal administration)), and the head was fixed using a brain stereotaxic apparatus (ASI Instruments, Inc., NARISHIGE). After incising the head skin, holes are opened at right and left olfactory bulb regions of the skull using a dental drill (manufactured by MINITOR), and the right and left olfactory bulbs were removed by sucking them using an aspirator connected to a tip-removed oral sonde, and the head skin was stitched thereafter. In this connection, in the case of the animals for sham-operation, anesthesia, brain fixation and head skin incision were carried out in the same manner as in the animals for olfactory bulbectomy, holes are opened at right and left olfactory bulb regions of the skull and the head skin was stitched without carrying out suction removal of the olfactory bulbs. The rats after olfactory bulbectomy were put into a series of five stainless steel cages, each of which was partitioned into two parts with an acrylic board for individual rearing space, and individually reared under a dark condition. The rats were subjected to the following tests of (2) and (3).
• (a) Sham-operation group (12 animals); • (b) Vehicle control group (12 animals); • (c) 3 mg/kg administration group (12 animals) of (2R)-2-propyloctanoic acid; • (d) 10 mg/kg administration group (12 animals) of (2R)-2-propyloctanoic acid; • (e) 10 mg/kg administration group (12 animals) of Milnacipran hydrochloride. [Drug Administration]
As shown below, drug solution or vehicle was administered once a day for 8 days, a total of 8 times, at a respective liquid dose of 5 mL/kg. • (a) Sham-operation group: vehicle (0.1% by volume Tween 80) aqueous solution; • (b) Vehicle control group: vehicle (0.1% by volume Tween 80) aqueous solution; • (c) 3 mg/kg administration group of (2R)-2-propyloctanoic acid: a drug solution in which (2R)-2-propyloctanoic acid was prepared to be 0.6 mg/mL with the vehicle; • (d) 10 mg/kg administration group of (2R)-2-propyloctanoic acid: a drug solution in which (2R)-2-propyloctanoic acid was prepared to be 2.0 mg/mL with the vehicle; • (e) 10 mg/kg administration group of milnacipran hydrochloride: a drug solution in which Milnacipran hydrochloride was prepared to be 2.3 mg/mL with the vehicle (Milnacipran itself is included in 2.0 mg/mL). (2) Examination of the Activity for Hyperemotional Reactivity <Evaluation Method>
Evaluation of the hyperemotional reactivity was carried out (1) before the grouping, (2) from 1 hour to 1 hour and 10 minutes after administration of the 1 day drug administration, (3) before administration of the 7 days administration and (4) from 1 hour to 1 hour and 10 minutes after the administration (a total of 4 times), by scoring the degree of irritability once a rat in accordance with the following evaluation criteria of hyperemotional reactivity (hyperemotional score: prepared based on the method of Gomita et al. (Folia Pharmacologica Japonica, 82, 267, 1983). Additionally, all of the conditions of the evaluation were shot and recorded using a video camera (SSC-DC430, SONY) and handled as reference data.

On to `CCCCCC[C@@H](CCC)C(=O)O` [(2R)-2-propyloctanoic acid], for which, for the setting “1st day and 7th day of the administration, result in words”, the “Development of hyperemotionality versus vehicle control group” value is recorded as “inhibited development of hyperemotionality”. Besides, the “Hyperemotional score (mean ± S. E.), Seven days administration, After administration” value turned out to be 5.9 ± 1.5 (dose 3 mg/kg once a day) and 4.8 ± 0.8 (dose 10 mg/kg once a day). In addition, the “Hyperemotional score (mean ± S. E.), Seven days administration, Before administration” value runs as follows: (dose 3 mg/kg once a day) 6.3 ± 1.0; (dose 10 mg/kg once a day) 6.7 ± 1.4. Also, the “Hyperemotional score (mean ± S. E.), One day administration, After administration” value (dose 3 mg/kg) is listed as 8.8 ± 1.4 and the “Hyperemotional score (mean ± S. E.), One day administration, After administration” value (dose 10 mg/kg) is reported as 7.4 ± 0.9. In addition, the “Hyperemotional score (mean ± S. E.), One day administration, Before administration” value is on record as 20.0 ± 0.0 (dose 3 mg/kg) and 20.0 ± 0.0 (dose 10 mg/kg).
